Reference: patent publication US12527886B2, “Radiopharmaceuticals and composition for thrombus imaging” (THE ASAN FOUNDATION, priority 2020, dated 2026)

Legend:
[1] = Stability of Tc-99m labeled compound by radioTLC; format: physicochemical; details: for Eluent A / Eluent B: in % (unit assumed)
Method: (§1) After 2.0 mg of GP-104 was dissolved in 1.8 mL of water for injection and 0.2 mL of ethanol, the resulting solution was allowed to stand with a pH of about 5 at room temperature for 10 minutes when 20 μL of SnCl2 (15 mg/mL) and 2 mL of Tc-99m were added thereto, and the reaction was terminated by adjusting the pH to 7 using a NaOH solution. Stability up to 4 hours was confirmed by radioTLC under conditions of pH 5 and pH 7, respectively, and the results are summarized in the following Table 1. (TLC analysis conditions: iTLC was used, Eluent A: methyl ethyl ketone 100%, Eluent B: pyridine:acetic acid:purified water=3:5:15, and purity calculation: Eluent A−Eluent B)
as §1, with “ethanol, pH was adjusted to about 5 and” for “ethanol,”, “stand” for “stand with a pH of about 5”, “(15 mg/mL), 20 μL of cysteine (10” for “(15”, “Table 2.” for “Table 1.”
(§2) After 2.0 mg of GP-105 was dissolved in 1.8 mL of water for injection and 0.2 mL of ethanol, the pH was adjusted to about 5 and the resulting solution was allowed to stand at room temperature for 10 minutes when 20 μL of SnCl2 (15 mg/mL) and 2 mL of Tc-99m were added thereto, and the reaction was terminated by adjusting the pH to 7 using a NaOH solution. Stability until 4 hours under conditions of pH 5 and pH 7 was each confirmed by radioTLC. (TLC analysis conditions: iTLC was used, Eluent A: methyl ethyl ketone 100%, Eluent B: pyridine:acetic acid:purified water=3:5:15, and purity calculation: Eluent A−Eluent B)
as §2, with “ethanol,” for “ethanol, the”, “(15 mg/mL), 20 μL of cysteine (10” for “(15”

glycoprotein IIb/IIIa = biological target: T1, glycoprotein IIb/IIIa (Rattus norvegicus, UniProt A0A8I6GGN2+Q8R2H2); test: Glycoprotein IIb/IIIa specific uptake in thrombotic disease model, gamma counter / microSPECT; format: in vivo, rats
T1 construct: a disease model in which a thrombus was formed with glycoprotein IIb/IIIa overexpressed; from tissue; host or cells: in vivo rat carotid artery thrombus (ferric chloride model)
Text: After 6-week-old rats were anesthetized to make a thrombotic disease model, the carotid artery was secured by opening the skin on the carotid artery side. Then, a filter paper soaked with a 5% ferric chloride solution was exposed on the artery, and then washed three times or more with physiological saline, and the incised skin was sutured again to make a model. […]

[2] = Ex 3-1, no cysteine, pH 5, 0 hour
[3] = Ex 3-1, no cysteine, pH 5, 0.5 hours
[4] = Ex 3-1, no cysteine, pH 5, 1.0 hour
[5] = Ex 3-1, no cysteine, pH 5, 1.5 hours
[6] = Ex 3-1, no cysteine, pH 5, 2.0 hours
[7] = Ex 3-1, no cysteine, pH 5, 3.0 hours
[8] = Ex 3-1, no cysteine, pH 5, 4.0 hours
[9] = Ex 3-1, no cysteine, pH 7, 0 hour
[10] = Ex 3-1, no cysteine, pH 7, 0.5 hours
[11] = Ex 3-1, no cysteine, pH 7, 1.0 hour
[12] = Ex 3-1, no cysteine, pH 7, 1.5 hours
[13] = Ex 3-1, no cysteine, pH 7, 2.0 hours
[14] = Ex 3-1, no cysteine, pH 7, 3.0 hours
[15] = Ex 3-1, no cysteine, pH 7, 4.0 hours
[16] = Ex 3-2, cysteine, pH 5, 0.5 hours
[17] = Ex 3-2, cysteine, pH 5, 1.0 hour
[18] = Ex 3-2, cysteine, pH 5, 1.5 hours
[19] = Ex 3-2, cysteine, pH 5, 2.0 hours
[20] = Ex 3-2, cysteine, pH 5, 3.0 hours
[21] = Ex 3-2, cysteine, pH 5, 4.0 hours
[22] = Ex 3-2, cysteine, pH 7, 0.5 hours
[23] = Ex 3-2, cysteine, pH 7, 1.0 hour
[24] = Ex 3-2, cysteine, pH 7, 1.5 hours
[25] = Ex 3-2, cysteine, pH 7, 2.0 hours
[26] = Ex 3-2, cysteine, pH 7, 3.0 hours
[27] = Ex 3-2, cysteine, pH 7, 4.0 hours
[28] = gamma counter, sacrificed at the 2nd hour

T1 sequence (A0A8I6GGN2 32-1037): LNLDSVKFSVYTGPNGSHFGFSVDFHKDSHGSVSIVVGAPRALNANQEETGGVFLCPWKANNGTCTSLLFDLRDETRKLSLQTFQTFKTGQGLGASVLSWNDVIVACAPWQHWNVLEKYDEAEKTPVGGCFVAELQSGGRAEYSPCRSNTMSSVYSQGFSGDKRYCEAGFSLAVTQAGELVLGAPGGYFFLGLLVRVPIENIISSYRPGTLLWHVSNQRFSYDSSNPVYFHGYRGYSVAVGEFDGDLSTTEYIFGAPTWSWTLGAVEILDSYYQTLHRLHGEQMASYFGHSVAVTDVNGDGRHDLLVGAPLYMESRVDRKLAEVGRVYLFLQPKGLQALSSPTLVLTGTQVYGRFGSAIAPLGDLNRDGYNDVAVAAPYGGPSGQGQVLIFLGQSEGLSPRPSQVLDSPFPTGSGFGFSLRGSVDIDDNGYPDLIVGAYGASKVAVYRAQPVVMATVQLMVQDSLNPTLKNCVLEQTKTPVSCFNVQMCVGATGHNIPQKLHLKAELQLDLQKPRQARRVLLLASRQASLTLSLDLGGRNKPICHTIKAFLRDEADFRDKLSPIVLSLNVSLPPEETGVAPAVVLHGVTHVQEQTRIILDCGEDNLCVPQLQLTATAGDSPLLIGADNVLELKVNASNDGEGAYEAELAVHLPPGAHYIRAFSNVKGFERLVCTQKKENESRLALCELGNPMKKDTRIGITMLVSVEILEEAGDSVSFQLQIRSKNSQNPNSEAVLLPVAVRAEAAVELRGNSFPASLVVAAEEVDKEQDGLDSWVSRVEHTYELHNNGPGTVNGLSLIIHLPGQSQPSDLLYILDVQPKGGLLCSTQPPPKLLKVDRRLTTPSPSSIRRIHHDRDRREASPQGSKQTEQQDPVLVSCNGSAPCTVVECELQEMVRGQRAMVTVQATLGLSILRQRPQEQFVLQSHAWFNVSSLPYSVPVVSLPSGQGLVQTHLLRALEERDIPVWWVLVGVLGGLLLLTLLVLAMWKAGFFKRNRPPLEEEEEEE
T1 sequence (Q8R2H2 26-787): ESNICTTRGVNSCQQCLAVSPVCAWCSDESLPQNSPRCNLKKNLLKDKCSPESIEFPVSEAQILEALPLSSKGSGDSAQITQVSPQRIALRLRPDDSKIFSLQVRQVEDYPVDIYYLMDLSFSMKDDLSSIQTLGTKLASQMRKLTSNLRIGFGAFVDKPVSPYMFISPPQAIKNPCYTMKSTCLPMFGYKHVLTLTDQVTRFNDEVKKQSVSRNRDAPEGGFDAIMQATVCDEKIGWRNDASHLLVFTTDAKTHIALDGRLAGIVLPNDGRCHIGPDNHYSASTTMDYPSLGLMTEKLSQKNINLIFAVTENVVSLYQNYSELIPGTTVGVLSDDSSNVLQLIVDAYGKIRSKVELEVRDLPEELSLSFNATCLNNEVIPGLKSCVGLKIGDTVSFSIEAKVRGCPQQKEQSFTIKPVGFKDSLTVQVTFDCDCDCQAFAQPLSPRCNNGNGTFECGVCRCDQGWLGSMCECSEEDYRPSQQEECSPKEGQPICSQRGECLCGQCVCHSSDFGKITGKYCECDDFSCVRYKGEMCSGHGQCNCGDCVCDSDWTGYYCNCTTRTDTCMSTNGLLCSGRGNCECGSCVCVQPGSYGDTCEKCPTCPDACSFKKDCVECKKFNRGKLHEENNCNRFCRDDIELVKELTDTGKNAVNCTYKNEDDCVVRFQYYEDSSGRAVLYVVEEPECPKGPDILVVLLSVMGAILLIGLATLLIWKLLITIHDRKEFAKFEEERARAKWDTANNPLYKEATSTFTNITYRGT

O=C(O)C[C@H](NC(=O)[C@@H]1CCCN(C(=O)CCC2CCNCC2)C1)c1cncc(OCCNC(=O)CN2CCN3CCN(CC(=O)O)CC(=O)[O][99Tc+]([O]C(=O)C3)[O]C(=O)C2)c1 [[Tc-99m]GP-104]
Purity [1, 2]: 90.28%
Eluent A [1, 2]: 95.7
Eluent B [1, 2]: 5.42
Purity [1, 3]: 91.36%
Eluent A [1, 3]: 95.42
Eluent B [1, 3]: 4.06
Purity [1, 4]: 82.28%
Eluent A [1, 4]: 98.43
Eluent B [1, 4]: 16.15
Purity [1, 5]: 72.79%
Eluent A [1, 5]: 85.7
Eluent B [1, 5]: 12.91
Purity [1, 6]: 70.11%
Eluent A [1, 6]: 91.79
Eluent B [1, 6]: 21.68
Purity [1, 7]: 67.71%
Eluent A [1, 7]: 91.64
Eluent B [1, 7]: 23.93
Purity [1, 8]: 55.93%
Eluent A [1, 8]: 80.48
Eluent B [1, 8]: 24.55
Purity [1, 9]: 90.59%
Eluent A [1, 9]: 98.26
Eluent B [1, 9]: 7.67
Purity [1, 10]: 78.04%
Eluent A [1, 10]: 92.82
Eluent B [1, 10]: 14.78
Purity [1, 11]: 78.31%
Eluent A [1, 11]: 94.51
Eluent B [1, 11]: 16.2
Purity [1, 12]: 82.7%
Eluent A [1, 12]: 96.11
Eluent B [1, 12]: 13.41
Purity [1, 13]: 76.61%
Eluent A [1, 13]: 96.22
Eluent B [1, 13]: 19.61
Purity [1, 14]: 77.93%
Eluent A [1, 14]: 87.58
Eluent B [1, 14]: 9.65
Purity [1, 15]: 54.14%
Eluent A [1, 15]: 73.22
Eluent B [1, 15]: 19.08
Purity ([1]; Ex 3-2, cysteine, pH 5, 0 hour): 85.97%
Eluent A ([1]; Ex 3-2, cysteine, pH 5, 0 hour): 89.51
Eluent B ([1]; Ex 3-2, cysteine, pH 5, 0 hour): 3.54
Purity [1, 16]: 87.89%
Eluent A [1, 16]: 93.51
Eluent B [1, 16]: 5.62
Purity [1, 17]: 90.39%
Eluent A [1, 17]: 93.61
Eluent B [1, 17]: 3.22
Purity [1, 18]: 93.47%
Eluent A [1, 18]: 95.55
Eluent B [1, 18]: 2.08
Purity [1, 19]: 82.97%
Eluent A [1, 19]: 91.17
Eluent B [1, 19]: 8.2
Purity [1, 20]: 86.06%
Eluent A [1, 20]: 89.61
Eluent B [1, 20]: 3.55
Purity [1, 21]: 87.56%
Eluent A [1, 21]: 91.99
Eluent B [1, 21]: 4.43
Purity ([1]; Ex 3-2, cysteine, pH 7, 0 hour): 96.94%
Eluent A ([1]; Ex 3-2, cysteine, pH 7, 0 hour): 100
Eluent B ([1]; Ex 3-2, cysteine, pH 7, 0 hour): 3.06
Purity [1, 22]: 93.36%
Eluent A [1, 22]: 98.3
Eluent B [1, 22]: 4.94
Purity [1, 23]: 96.35%
Eluent A [1, 23]: 98.27
Eluent B [1, 23]: 1.92
Purity [1, 24]: 97.69%
Eluent A [1, 24]: 100
Eluent B [1, 24]: 2.31
Purity [1, 25]: 97.12%
Eluent A [1, 25]: 100
Eluent B [1, 25]: 2.88
Purity [1, 26]: 94.14%
Eluent A [1, 26]: 100
Eluent B [1, 26]: 5.86
Purity [1, 27]: 95.76%
Eluent A [1, 27]: 100
Eluent B [1, 27]: 4.24
Purity ([1]; addition of cysteine, pH of 7, even after 4 hours (text to Table 2)): ≥ 90%
specific uptake in the disease model (glycoprotein IIb/IIIa): high specific uptake
target to non target ratio (glycoprotein IIb/IIIa; gamma counter, 2nd hour): 2.0
counts per minute (CPM)/g value, left artery (glycoprotein IIb/IIIa; [28]): 1.3 CPM/g
counts per minute (CPM)/g value, right artery (glycoprotein IIb/IIIa; [28]): 2.5 CPM/g
background radioactivity excretion (glycoprotein IIb/IIIa; microSPECT until 4 hours): quick background radioactivity excretion effect
